Data reported in the supplement of paper PMC4862054.

How the values were obtained:
Details in all cases: incubation time: 72 h
MDA-MB-231 [1] = test: normalised response (% of control), CellTox Green; higher = less cell death (100 = DMSO, 0 = benzethonium chloride kill control)
Procedure, shortened: (§1)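 After 72 h with compound in 384-well plates, breast cancer cell lines seeded as 20 µl suspension were read for CellTox Green fluorescence at 485/520 nm. CellTiter-Glo luminescence was then read after 10 min at room temperature. Compound was present at 5 concentrations in 10-fold steps over a 10,000-fold range set per compound, and plates were normalised to 0.1 % DMSO (100) and a positive kill control (0). Values are normalised signals, each at a single concentration.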

HCC1937 [2] = test: as above
Procedure, shortened: as §1

MCF-10A [3] = test: as above
Procedure, shortened: as §1

CAL-51 [4] = test: as above
Procedure, shortened: as §1

HCC1143 [5] = test: as above
Procedure, shortened: as §1

CAL-148 [6] = test: as above
Procedure, shortened: as §1

CAL-85-1 [7] = test: as above
Procedure, shortened: as §1

HCC1599 [8] = test: as above
Procedure, shortened: as §1

BT-474 [9] = test: as above
Procedure, shortened: as §1

MDA-MB-436 [10] = test: as above
Procedure, shortened: as §1

CAL-120 [11] = test: as above
Procedure, shortened: as §1

MDA-MB-468 [12] = test: as above
Procedure, shortened: as §1

Hs578T [13] = test: as above
Procedure, shortened: as §1

MDA-MB-453 [14] = test: as above
Procedure, shortened: as §1

DU-4475 [15] = test: as above
Procedure, shortened: as §1

BT-549 [16] = test: as above
Procedure, shortened: as §1

MDA-MB-231 [17] = test: normalised response (% of control), CellTiter-Glo; higher = more viable cells (100 = DMSO, 0 = benzethonium chloride kill control)
Procedure, shortened: as §1

HCC1937 [18] = test: as above
Procedure, shortened: as §1

MCF-10A [19] = test: as above
Procedure, shortened: as §1

SK-BR-3 = test: as above
Procedure, shortened: as §1

CAL-51 [20] = test: as above
Procedure, shortened: as §1

HCC1143 [21] = test: as above
Procedure, shortened: as §1

CAL-148 [22] = test: as above
Procedure, shortened: as §1

CAL-85-1 [23] = test: as above
Procedure, shortened: as §1

HCC1599 [24] = test: as above
Procedure, shortened: as §1

BT-474 [25] = test: as above
Procedure, shortened: as §1

MDA-MB-436 [26] = test: as above
Procedure, shortened: as §1

CAL-120 [27] = test: as above
Procedure, shortened: as §1

MDA-MB-468 [28] = test: as above
Procedure, shortened: as §1

Hs578T [29] = test: as above
Procedure, shortened: as §1

MDA-MB-453 [30] = test: as above
Procedure, shortened: as §1

HDQ-P1 [31] = test: as above
Procedure, shortened: as §1

DU-4475 [32] = test: as above
Procedure, shortened: as §1

BT-549 [33] = test: as above
Procedure, shortened: as §1

MFM-223 [34] = test: as above
Procedure, shortened: as §1

HDQ-P1 [35] = test: normalised response (% of control), CellTox Green; higher = less cell death (100 = DMSO, 0 = benzethonium chloride kill control)
Procedure, shortened: as §1

MFM-223 [36] = test: as above
Procedure, shortened: as §1

SMILES | normalised response (MDA-MB-231 [1]) [%] | normalised response (HCC1937 [2]) [%] | normalised response (MCF-10A [3]) [%] | normalised response (CAL-51 [4]) [%] | normalised response (HCC1143 [5]) [%] | normalised response (CAL-148 [6]) [%] | normalised response (CAL-85-1 [7]) [%] | normalised response (HCC1599 [8]) [%] | normalised response (BT-474 [9]) [%] | normalised response (MDA-MB-436 [10]) [%] | normalised response (CAL-120 [11]) [%] | normalised response (MDA-MB-468 [12]) [%] | normalised response (Hs578T [13]) [%] | normalised response (MDA-MB-453 [14]) [%] | normalised response (DU-4475 [15]) [%] | normalised response (BT-549 [16]) [%] | normalised response (MDA-MB-231 [17]) [%] | normalised response (HCC1937 [18]) [%] | normalised response (MCF-10A [19]) [%] | normalised response (SK-BR-3) [%] | normalised response (CAL-51 [20]) [%] | normalised response (HCC1143 [21]) [%] | normalised response (CAL-148 [22]) [%] | normalised response (CAL-85-1 [23]) [%] | normalised response (HCC1599 [24]) [%] | normalised response (BT-474 [25]) [%] | normalised response (MDA-MB-436 [26]) [%] | normalised response (CAL-120 [27]) [%] | normalised response (MDA-MB-468 [28]) [%] | normalised response (Hs578T [29]) [%] | normalised response (MDA-MB-453 [30]) [%] | normalised response (HDQ-P1 [31]) [%] | normalised response (DU-4475 [32]) [%] | normalised response (BT-549 [33]) [%] | normalised response (MFM-223 [34]) [%] | normalised response (HDQ-P1 [35]) [%] | normalised response (MFM-223 [36]) [%]
CN(c1ccccc1CNc1nc(Nc2ccc3c(c2)CC(=O)N3)ncc1C(F)(F)F)S(C)(=O)=O (1000 nM) | 83.4 | 111 | 101 | 15.1 | 71.2 | 96.8 | 99.4 | 97.1 | 101 | 104 | 99.7 | 150 | 65.3 | 106 | 97.4 | 116 | 76.4 | 94.5 | 63.5 | 79.7 | 53.6 | 87.8 | 91.1 | 87.2 | 107 | 73.2 | 101 | 81 | 69 | 89.1 | 128 | 84.5 | 84.8 | 93.5 | 92.3 |  | 
Nc1nccc(-c2c(-c3ccc(F)cc3)ncn2C2CCCCC2)n1 (1000 nM) | 84 | 91.5 | 109 | 86.2 | 120 | 98.4 | 104 | 100 | 102 | 81.5 | 107 | 67.2 |  | 107 | 107 | 109 | 98.7 | 97.3 | 103 | 95.4 | 97 | 101 | 97.5 | 96.7 | 104 | 98.9 | 103 | 108 | 68.9 | 104 | 96.6 | 106 | 103 | 101 | 105 | 103 | 
CS(=O)(=O)CCNCc1ccc(-c2ccc3ncnc(Nc4ccc(OCc5cccc(F)c5)c(Cl)c4)c3c2)o1 [Lapatinib] (100 nM) | 115 | 118 | 109 | 101 |  | 77.7 | 96.8 | 105 | 96 | 91.4 | 96.9 | 116 |  | 92.5 | 98.3 | 126 | 108 | 94.6 | 79.1 | 50.2 | 90.5 | 103 | 98.3 | 96.1 | 97.2 | 99.9 | 103 | 102 | 102 | 115 | 92.2 | 83.9 | 99.1 | 104 | 104 | 92.8 | 101
COC(=O)C[C@](O)(CCCC(C)(C)O)C(=O)O[C@@H]1C(OC)=C[C@]23CCCN2CCc2cc4c(cc2[C@H]13)OCO4 [Omacetaxine] (1000 nM) | 66.4 | 24.1 | 33.5 | 111 | 108 | 93.1 | 4.24 | 85.7 | 93.7 | 104 | 91.4 | 67.1 | 60.2 | 115 | 97.7 | 52.6 | 9.47 | 25.8 | 11.3 | 12.6 | 10.1 | 14.5 | 32 | 0.88 | 8.63 | 26.4 | 17.2 | 26.9 | 4.18 | 2 | 48.8 | 23.1 | 25 | 7.92 | 14.4 | 74.8 | 36
Cc1cc(C(C)Nc2ccccc2)c2nc(N3CCOCC3)cc(=O)n2c1 (stereo not given) [TGX-221] (1000 nM) | 110 | 102 | 105 | 105 | 90.6 | 90.8 | 106 | 101 | 95.7 | 90.5 | 99.8 | 113 | 97.5 | 105 | 96.2 | 92.6 | 89.7 | 86.9 | 93.8 | 91.7 | 102 | 89.4 | 98.1 | 91.7 | 106 | 83.3 | 89.4 | 94.8 | 77.8 | 93.7 | 97.2 | 88 | 95.7 | 88.8 | 95 | 103 | 80.3
COc1cc(Nc2ncc(F)c(Nc3ccc4c(n3)NC(=O)C(C)(C)O4)n2)cc(OC)c1OC [Tamatinib] (1000 nM) | 107 |  | 105 | 89.9 | 119 | 102 | 103 | 103 | 99.7 | 94.2 | 105 |  | 108 | 103 | 100 | 90.7 | 101 | 102 | 104 | 104 | 92.1 | 104 | 95.6 | 95.1 | 106 | 96.6 | 104 | 97.2 | 88.7 | 101 | 105 | 98.4 | 103 | 77.5 | 104 | 105 | 103
C[C@@H]1CCN(C(=O)CC#N)C[C@@H]1N(C)c1ncnc2[nH]ccc12 [Tofacitinib] (500 nM) | 116 | 132 | 64.1 | 103 | 98 | 108 | 102 | 112 | 104 | 82.4 | 102 | 137 | 115 | 101 | 101 | 129 | 107 | 100 | 97.5 | 107 | 75.8 | 99.6 | 109 | 106 | 138 | 107 | 104 | 98.6 | 104 | 99.8 | 94.5 | 104 | 103 | 98.4 | 108 | 102 | 103
CCCC(CCC)C(=O)O [Valproic acid] (100000 nM) | 102 | 86.4 | 53 | 53.4 | 110 | 85.4 | 107 | 101 | 98.1 | 109 | 107 | 123 | 63.5 | 111 | 105 | 95.3 | 98.7 | 103 | 101 | 101 | 83.5 | 101 | 91.4 | 101 | 94.1 | 98.6 | 101 | 96.1 | 97.8 | 104 | 91.1 | 101 | 94 | 103 | 99.2 | 75.3 | 99.4
FC(F)c1nc2ccccc2n1-c1nc(N2CCOCC2)nc(N2CCOCC2)n1 [ZSTK474] (1000 nM) | 90.3 | 101 | 57.7 | 92.8 | 77.2 | 89.5 | 101 | 96.3 | 90.7 | 85.9 | 107 | 79.9 | 104 | 103 | 102 | 95.5 | 61.6 | 69.7 | 47.5 | 35.2 | 49.7 | 73.5 | 69.2 | 49.8 | 79.1 | 70.3 | 56.8 | 65.4 | 58.3 | 45.4 | 40.4 | 51.9 | 87.9 | 42.4 | 55.8 | 49.5 | 71
